Experimental findings from ChEMBL document CHEMBL1138642, “In vitro advanced antimycobacterial screening of cobalt(II) and copper(II) complexes of fluorinated isonicotinoylhydrazones” (2004) are described below.

Broadly, the EC90 is the point of the concentration-response curve where the effect stands at 90%. Usually EC99 stands for the concentration at which the effect reaches the 99% level. A low value points to greater potency.

≈ marks a conversion by molar mass, not a printed value.

Common to all, as to assay type: functional
Test [1] concerns Mycobacterium tuberculosis. Description: Effective concentration required to reduce CFU of Mycobacterium tuberculosis Erdman (ATCC 35801) strain was determined in monolayers of mouse bone marrow macrophages.
For test [2], the system named is Mycobacterium tuberculosis. Description: Effective concentration required compared to that of Minimum inhibition concentration required against Mycobacterium tuberculosis H37Rv strain was determined; Range is 0.6-1.2.
For test [3], the system named is Mycobacterium tuberculosis. Description: Minimum bactericidal concentration required against Mycobacterium tuberculosis H37Rv strain was determined in monolayers of mouse bone marrow macrophages.
In test [4] the test system is Mycobacterium tuberculosis. Description: Effective concentration required to reduce CFU of Mycobacterium tuberculosis Erdman (ATCC 35801) strain was determined in monolayers of mouse bone marrow macrophages; […].
Test [5] deals with Mycobacterium tuberculosis. Description: Effective concentration required to reduce CFU of Mycobacterium tuberculosis Erdman (ATCC 35801) strain was determined in monolayers of mouse bone marrow macrophages; Range is 0.5-1.5.

In the case of `NNC(=O)c1ccncc1` [ISONIAZID], in test [1], the EC90 is 0.03 µg/mL (≈ 0.219 µM) and the 99% effect level (EC99) was put at 0.42 µg/mL. In addition, the EC90/MIC in test [2] is reported as 1.2. In test [3], the MBC is 0.1 µg/mL (≈ 0.729 µM).
In test [4], `CO[C@H]1/C=C/O[C@@]2(C)Oc3c(C)c(O)c4c(O)c(c(/C=N/N5CCN(C)CC5)c(O)c4c3C2=O)NC(=O)/C(C)=C\C=C\[C@H](C)[C@H](O)[C@@H](C)[C@@H](O)[C@@H](C)[C@H](OC(C)=O)[C@@H]1C` [RIFAMPIN] displayed an EC90 of 0.1 µg/mL (≈ 0.122 µM). This compound displayed an EC99 in test [5] of 1.5 µg/mL.
